Entries after “also recorded” stand apart in the source; their conditions may differ.

The subject of assay [1] is B16F10 mouse melanoma cells. The assay is described as follows: Subcutaneous B16F10 tumor growth in C57BL/6 mice. The settings on record: in chow: WO-2010-0138598 Ex. 9 10 or 100 mg/kg/day, SB742881 100 mg/kg/day.
Procedure: Animals were palpated weekly for tumor formation, after which sizeable tumors were measured twice a week. Tumor volume was calculated as (small diameter)^2×(large diameter)/2.
In assay [2] the test system is ApoE. Nature of the assay: ApoE expression by qRT-PCR in human melanoma cells. It counts as cell-based. The settings on record: MeWo cells, 500 nM, 1 μM or 2 μM, 48 hours. The protocol:
Total RNA was extracted from various cell lines using the miRvana kit (AM1560, Applied Biosystems, Austin, Tex.). The expression levels of mature miRNAs were quantified using the Taqman miRNA expression assay (4427975-0002228, Applied Biosystems). RNU44 was used as an endogenous control for normalization. For mRNA expression analyses, 600 ng of total RNA was reverse transcribed using the cDNA First-Strand Synthesis Kit (18080-051, Invitrogen), and roughly 200 ng of the resulting cDNA was then mixed with SYBR green PCR Master Mix (4309155, Applied Biosystems) and the appropriate primers. Each reaction was performed in quadruplicate, and mRNA expression was quantified by performing real-time PCR amplification using an ABI Prism 7900HT Real-Time PCR System (Applied Biosystems). GAPDH was used as an endogenous control for normalization. The following primers were used: […]
RNA was extracted from whole cell lysates using the Total RNA Purification Kit (17200, Norgen, Thorold, Canada). 600 ng of total RNA was then reverse transcribed into cDNA using the cDNA First-Strand Synthesis Kit (18080-051, Invitrogen), and quantitative real-time PCR amplification was performed as previously described (Pencheva et al., 2012) using an ABI Prism 7900HT Real-Time PCR System (Applied Biosystems, Austin, Tex.). Each PCR reaction was carried out in quadruplicates. Gene expression was normalized to GAPDH, which was used as an endogenous control.
For every sample, 600 ng of RNA was reverse transcribed into cDNA using the cDNA First-Strand Synthesis kit (Invitrogen). Approximately 200 ng of cDNA was mixed with SYBR® green PCR Master Mix and the corresponding forward and reverse primers specific for detection of human ApoE. Each reaction was carried out in quadruplicates, and ApoE mRNA expression levels were measured by quantitative real-time PCR amplification using an ABI Prism 7900HT Real-Time PCR System (Applied Biosystems). The relative ApoE expression was determined using the ΔΔCt method. GAPDH was used as an endogenous control for normalization purposes.
In general terms: In qPCR the cycle at which signal appears reflects the starting amount.

In assay [3] the test system is MeWo, MeWo-LM2, HT-144, SK-Mel-2 and SK-Mel-334.2 human melanoma cells. The assay is described as follows: Trans-well matrigel cell invasion assay, melanoma cells. It counts as cell-based. The settings on record: 1 μM for 72 hours. The protocol: Cancer cells were serum-starved in 0.2% FBS DMEM-based media for 12 hours. Trans-well invasion chambers (354480, BD Biosciences, Bedford, Mass.) were pre-equilibrated prior to beginning the assay by adding 0.5 mL of starvation media to the top and bottom chambers. After 30 minutes, the media in the top chamber was removed, and 0.5 mL of media containing 1×10^5 cancer cells was added into each matrigel-coated trans-well insert and incubated at 37° C. for 24 hours. For neutralization antibody and/or recombinant protein experiments, antibody/recombinant protein was added to each well at the start of the assay at the following concentrations as indicated in the figures: 5-40 μg/mL anti-ApoE 1D7 (Heart Institute, University of Ottawa), 5-40 μg/mL anti-IgG (AB-108-C, R&D Systems, Minneapolis, Minn.), 100 μM recombinant human ApoE3 (4696, BioVision, Mountain View, Calif.), and 100 μM BSA (A2153, Sigma-Aldrich). Upon completion of the assay, matrigel-coated inserts were washed with PBS, the cells at the top side of each insert were scraped off, and the inserts were fixed in 4% paraformaldehyde for 15 minutes. The inserts were then cut out and mounted onto slides using VectaShield mounting medium containing DAPI (H-1000, Vector Laboratories, Burlingame, Calif.). The basal side of each insert was imaged using an inverted fluorescence microscope (Zeiss Axiovert 40 CFL) at 5× magnification, taking three representative images for each insert. The number of invaded cells was quantified using ImageJ (NIH).
The cell invasion assay was performed as previously described in detail (Pencheva et al., 2012) using a trans-well matrigel invasion chamber system (354480, BD Biosciences). In brief, various melanoma cells were cultured in the presence of DMSO, GW3965, T0901317, or Bexarotene at 1 μM for 56 hours, after which melanoma cells were switched to starvation media (0.2% FBS) for 16 hours in the presence of each drug. Following starvation, cells were seeded into matrigel-coated trans-well inserts, and the invasion assay was allowed to proceed for 24 hours at 37° C. For ApoE antibody neutralization experiments, 40 μg/mL 1D7 anti-ApoE blocking antibody (Heart Institute, University of Ottawa, Ottawa, Canada) or 40 t g/mL anti-IgG control antibody (AB-108-C, R&D Systems, Minneapolis, Minn.) was added to each trans-well insert at the start of the assay.
The cells were then serum starved for 16 hours in 0.2% FBS media in the presence of each corresponding drug or DMSO. Following serum starvation, the cells were subjected to the trans-well invasion assay using a matrigel invasion chamber system (354480, BD Biosciences). Invasion chambers were pre-equilibrated prior to the assay by adding 0.5 mL of starvation media to the top and bottom wells. Meanwhile, cancer cells were trypsinized and viable cells were counted using trypan blue. Cancer cells were then resuspended at a concentration of 2×10^5 cells/1 mL starvation media, and 0.5 mL of cell suspension, containing 1×10^5 cells, was seeded into each trans-well. The invasion assay was allowed to proceed for 24 hours at 37° C. […] Following fixation, the inserts were washed in PBS, cut out, and mounted onto slides using VectaShield mounting medium containing DAPI nuclear stain (H-1000, Vector Laboratories). The basal side of each insert was imaged using an inverted fluorescence microscope (Zeiss Axiovert 40 CFL) at 5× magnification, and the number of DAPI-positive cells was quantified using ImageJ.

Assay [4] relates to melanoma cells (MeWo, MeWo-LM2, HT-144, SK-Mel-334.2) and endothelial cells. Nature of the assay: In vitro cell proliferation, viability and serum starvation assays. The format is cell-based, human. The following applies: MeWo, HT-144, SK-Mel-334.2; 1 μM, 5 days. The procedure:
To determine the effects of miR-199a or miR-1908 over-expression and combinatorial LNA-induced miRNA inhibition on cell proliferation, 2.5×10^4 cells were seeded in triplicate in 6-well plates, and viable cells were counted after 5 days. […] Viable cells were counted after 8, 24, 48, 72, and 120 hours.
The number of viable cells was counter after 8, 16, and 24 hours.
To determine the effects of GW3965, T0901317, and Bexarotene on in vitro cell growth, 2.5×10^4 melanoma cells were seeded in triplicate in 6-well plates and cultured in the presence of DMSO, GW3965, T0901317, or Bexarotene at 1 μM each. After 5 days, the number of viable and dead cells was counted using the trypan blue dye (72-57-1, Sigma-Aldrich), which selectively labels dead cells.

Assay [5] deals with human umbilical vein endothelial cells (HUVEC's). The assay is described as follows: Endothelial recruitment assay (HUVEC migration towards melanoma cells). It counts as cell-based. The following applies: MeWo, HT-144, SK-Mel-2, SK-Mel-334.2; 1 μM for 72 hours. The procedure: 5×10^4 cancer cells were seeded into 24-well plates approximately 24 hours prior to the start of the assay. HUVEC's were grown to 80% confluency and serum starved in EGM-2 media supplemented with 0.2% FBS for 16 hours. HUVEC's were then pulsed with Cell Tracker Red CMTPX dye (C34552, Invitrogen) for 45 minutes. Meanwhile, cancer cells were washed with PBS, 0.5 mL of 0.2% FBS EGM-2 media was added to each well, and a 3.0 μm HTS Fluoroblock insert (351151, BD Falcon, San Jose, Calif.) was placed into each well. 1×10^5 HUVEC's, resuspended in 0.5 mL of starvation media, were seeded into each trans-well insert, and the recruitment assay was allowed to proceed for 16-18 hours at 37° C. For neutralization antibody and/or recombinant protein experiments, antibody/protein was then added to each well at the appropriate concentration as indicated in the figures: 40 μg/mL anti-ApoE 1D7, 40 μg/mL anti-IgG, 100 μM rhApoE3, and 100 μM BSA. Upon completion of the assay, the inserts were processed and analyzed as described for the matrigel invasion assay above (See Matrigel Invasion Assay).
The endothelial recruitment assay was carried out as previously described (Pencheva et al., 2012; Png et al., 2012). Melanoma cells were treated with DMSO, GW3965, T0901317, or Bexarotene at 1 μM for 56 hours, after which 5×10^4 cells were seeded in a 24-well plate in the presence of each drug and allowed to attach for 16 hours prior to starting the assay. HUVEC cells were serum-starved overnight in EGM-2 media containing 0.2% FBS. The following day, 1×10^5 HUVEC cells were seeded into a 3.0 μm HTS Fluoroblock trans-well migration insert (351151, BD Falcon, San Jose, Calif.) fitted into each well containing cancer cells at the bottom. The HUVEC cells were allowed to migrate towards the cancer cells for 20 hours at 37° C., after which the inserts were processed as previously described (Pencheva et al., 2012). For ApoE antibody neutralization experiments, 40 μg/mL 1D7 anti-ApoE blocking antibody (Heart Institute, University of Ottawa, Ottawa, Canada) or 40 μg/mL anti-IgG control antibody (AB-108-C, R&D Systems, Minneapolis, Minn.) was added to each trans-well insert at the start of the assay.
Subsequently, 5×10^4 cancer cells were seeded into 24-well plates in the presence of each drug or DMSO and allowed to attach for 16 hours prior to starting the assay. Human umbilical vein endothelial cells (HUVEC cells) were serum-starved in 0.2% FBS-containing media overnight. The following day, 1×10^5 HUVEC cells were seeded into a 3.0 μm HTS Fluoroblock insert (351151, BD Falcon) fitted into each well containing the cancer cells at the bottom. The HUVEC cells were allowed to migrate towards the cancer cells for 20 hours, after which the inserts were washed in PBS, fixed in 4% PFA, labeled with DAPI, and mounted on slides. The basal side of each insert was imaged using an inverted fluorescence microscope (Zeiss Axiovert 40 CFL) at 5× magnification, and the number of DAPI-positive cells was quantified using ImageJ.

Assay [6] has as its system B16F10 parental and DTIC-resistant cells. Nature of the assay: Tumor growth by DTIC-sensitive and DTIC-resistant B16F10 cells. It counts as in vivo, mouse. The following applies: dacarbazine 50 mg/kg, i.p., daily. The protocol: First, the cells were treated with 500 μg/mL DTIC for one week. Following this initial DTIC treatment, the remaining (˜10%) viable cells were allowed to recover for one week, after which 750 rag/mL of DTIC was added to the cell media for 5 days. Subsequent to this high-dose treatment, the cells were allowed to recover in the presence of low-dose DTIC (100 jag/mL) for one week. The cells were then continuously cultured in cell media containing 200 rag/mL DTIC for at least one month prior to grafting the cells into mice. DTIC was added to fresh cancer cell media every 3 days.

On to `CC(C)(O)c1cn(-c2ccc(-c3cc(F)c(CO)c(S(C)(=O)=O)c3)cc2F)c(C(C)(C)c2c(Cl)cccc2Cl)n1` [Compound 12], for which the “melanoma primary tumor growth” value in assay [1] is listed as “significantly inhibited”. For the same compound, the ApoE expression induction result in assay [2] (listed as WO-2010-0138598 Ex. 9) is reported as “varied degrees of ApoE expression induction; also recorded: potently induce”. The “inhibition of in vitro cancer progression phenotypes (cell invasion, endothelial recruitment)” value in assay [3] (MeWo cells, relative to lower potency LXR agonists) is “more effective”.
Take `CC(C)(O)c1cn(-c2ccc(-c3cccc(S(C)(=O)=O)c3)cc2)c(C(C)(C)c2ccccc2Cl)n1` [Compound 38]: in assay [2], the ApoE expression induction result is recorded as “varied degrees of ApoE expression induction”.
`Fc1ccc(-c2c3cccc(C(F)(F)F)c3nn2Cc2ccc(F)cc2Cl)cc1` [LXR-623 3]: in assay [2], the ApoE expression induction entry is listed as “varied degrees of ApoE expression induction”.
Consider `C=C(c1ccc(C(=O)O)cc1)c1cc2c(cc1C)C(C)(C)CCC2(C)C` [bexarotene], for which the “cell proliferation or cell viability rates” value in assay [4] is “did not affect”. Besides, the “ability of melanoma cells to invade through matrigel” value in assay [3] (MeWo, HT-144, SK-Mel-2, SK-Mel-334.2) is listed as “suppressed invasion only in half of the melanoma lines tested”. Further, the “ability of melanoma cells to recruit endothelial cells” value in assay [5] is “did not significantly affect”.
For `CN(C)/N=N/c1[nH]cnc1C(N)=O` [dacarbazine], in assay [6], the “growth of the DTIC-sensitive parental line” value is given as “significantly suppressed” and the “tumor growth by B16F10 DTIC-resistant cells” value was “did not affect”.

Source of the values: patent publication US10945978B2, “Treatment and diagnosis of melanoma” (The Rockefeller University, priority 2012, dated 2021).
